In this experiment the target is Nonstructural protein 3 (Zika virus, UniProt A0A024AXB9). Briefly: Binding affinity to Zika virus NS2B-NS3 protease.

Consider one molecule from BindingDB's records for doi:10.1016/j.bmcl.2020.126965 (Australian National University, 2020).

Chain of Nonstructural protein 3 (A0A024AXB9 whole entry): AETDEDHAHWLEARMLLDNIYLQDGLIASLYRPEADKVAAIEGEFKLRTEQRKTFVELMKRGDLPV

Consider `CC1=CCC(C(=O)/N=C2\CC=C(S(=O)(=O)O)c3cc(S(=O)(=O)O)cc(S(=O)(=O)O)c32)=C/C1=N/C(=O)C1=CC=C/C(=N\C(=O)/N=C2\C=CC=C(C(=O)/N=C3/CC(C(=O)/N=C4\CC=C(S(=O)(=O)O)c5cc(S(=O)(=O)O)cc(S(=O)(=O)O)c54)=CC=C3C)C2)C1`, for which the midpoint of the response, the EC50, lay at 1930 nM.
